In patent US12384769B2, “Heteroaryl-substituted aminoalkyl azole compounds as pesticides” (Elanco Animal Health GmbH, priority 2019, dated 2025):

Key:
Assay type in all cases: in vivo
Boophilus microplus = Boophilus microplus injection test (BOOPMI Injection); settings: Rhipicephalus microplus, 168 h, injection into adult engorged female ticks, egg deposition after 7 days, read-out: activity (efficacy, infertile eggs); for pest or weed control at 0.004 mg: 4 μg/animal; for pest or weed control at 0.02 mg: 20 μg/animal
How it was run: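 Adult engorged female ticks (5 per group) injected into the abdomen with 1 μL compound in DMSO, then held in a climate chamber. Fertile egg deposition scored after 7 days, with unclear eggs kept until hatching (~42 days). Efficacy 100% = all eggs infertile, 0% = all fertile.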

Diabrotica balteata = Diabrotica balteata spray test; settings: 168 h, wheat seeds, after 7 days, read-out: activity (efficacy, seedlings grown); for pest or weed control at 160 µg/disc, 500 g/ha: 500 g/ha (=160 μg/well)
How it was run: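 Germinated wheat seedlings (5 per well, on agar) sprayed with compound in acetone/DMF with emulsifier-containing water, then infested with 10–20 Diabrotica balteata larvae. Efficacy (%) scored after 7 days from seedling growth: 100% = growth as untreated uninfested control, 0% = no seedlings grown.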

[1] = test system: Rhipicephalus microplus (strain Parkhurst, resistant against synthetic pyrethroids); assay: Rhipicephalus microplus in-vitro contact test, larval cattle tick (BOOPMI Contact); settings: 5 μg/cm^2 (=500 g/ha), after 48 hours, read-out: activity (efficacy, larvae dead or moribund)
How it was run: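 Glass tubes coated with compound in acetone (900 ppm giving 5 μg/cm²), dried, then loaded with 20-50 pyrethroid-resistant Parkhurst larvae and held at 27 °C, 85% RH. After 48 h negative geotaxis is scored; efficacy in % dead or moribund larvae.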

Rhipicephalus sanguineus = Rhipicephalus sanguineus in-vitro contact test, adult brown dog ticks (RHIPSA Contact); settings: 5 μg/cm^2 (=500 g/ha), after 48 hours, read-out: activity (efficacy, ticks dead or moribund)
Procedure: Rhipicephalus sanguineus—in-Vitro Contact Tests with Adult Brown Dog Ticks (RHIPSA Contact)
9 mg compound is solved in 1 ml acetone and diluted with acetone to the desired concentration. 250 μl_, of the test solution is filled in 25 ml glass test tubes and homogeneously distributed on the inner walls by rotation and tilting on a shaking device (2 h at 30 rpm). With a compound concentration of 900 ppm, an inner surface of 44.7 cm^2 and a homogeneous distribution, a dose of 5 μg/cm^2 is achieved.
After the solvent has evaporated, each test tube is filled with 5-10 adult brown dog ticks (Rhipicephalus sanguineus), closed with a perforated lid and incubated in a lying position at room temperature and relative humidity. After 48 hours efficacy is determined. The ticks are patted on the ground of the tubes and are incubated on a heating plate at 45-50° C. for at most 5 minutes Immotile or uncoordinated moving ticks, which are not able to escape the heat by climbing upwards, are marked as dead or moribund.
An efficacy of 100% means all ticks are dead or moribund; 0% means no ticks are dead or moribund.

Spodoptera frugiperda = Spodoptera frugiperda spray test; settings: in Zea mays, 168 h, read-out: activity (mortality)
How it was run: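 Compound in acetone/DMF, diluted in water with 1000 ppm alkylarylpolyglycol ether emulsifier, sprayed on maize leaf sections. Dried leaves infested with fall armyworm larvae; % mortality after 7 days (100% = all killed, 0% = none).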

Ctenocephalides felis [2] = assay: Ctenocephalides felis in-vitro contact test, adult cat flea; settings: 5 μg/cm^2 (=500 g/ha), after 48 hours, read-out: activity (efficacy, fleas dead or moribund)
Procedure: Ctenocephalides felis—in-Vitro Contact Tests Adult Cat Flea
9 mg compound is solved in 1 ml acetone and diluted with acetone to the desired concentration. […] the test solution is filled in 25 ml glass test tubes and homogeneously distributed on the inner walls by rotation and tilting on a shaking device (2 h at 30 rpm). With a compound concentration of 900 ppm, an inner surface of 44.7 cm^2 and a homogeneous distribution, a dose of 5 μg/cm^2 is achieved.
After the solvent has evaporated, each test tube is filled with 5-10 adult cat fleas (Ctenocephalides felis), closed with a perforated lid and incubated in a lying position at room temperature and relative humidity. After 48 hours efficacy is determined. The fleas are patted on the ground of the tubes and are incubated on a heating plate at 45-50° C. for at most 5 minutes Immotile or uncoordinated moving fleas, which are not able to escape the heat by climbing upwards, are marked as dead or moribund.
An efficacy of 100% means all fleas are dead or moribund; 0% means no fleas are dead or moribund.

Ctenocephalides felis [3] = assay: Ctenocephalides felis oral test (CTECFE); settings: 48 h, 100 ppm in cattle blood, after 2 days
Procedure: Ctenocephalides felis—Oral Test (CTECFE)
Solvent: dimethyl sulfoxide
To produce a suitable preparation of active compound, 10 mg of active compound are dissolved in 0.5 ml solvent, and the concentrate is diluted with cattle blood to the desired concentration.
Approximately 20 adult unfed cat fleas (Ctenocephalides felis) are placed in flea chambers. The blood chamber, sealed with parafilm on the bottom, are filled with cattle blood supplied with compound solution and placed on the gauze covered top of the flea chamber, so that the fleas are able to suck the blood. The blood chamber is heated to 37° C. whereas the flea chamber is kept at room temperature.
After 2 days mortality in % is determined. 100% means all the fleas have been killed; 0% means none of the fleas have been killed.

Structure (SMILES) | pest or weed control at 0.004 mg (Boophilus microplus) [%] | pest or weed control at 0.02 mg (Boophilus microplus) [%] | pest or weed control at 100 g/ha (Diabrotica balteata) [%] | pest or weed control at 160 µg/disc, 500 g/ha (Diabrotica balteata) [%] | pest or weed control at 5 µg/cm2 [1] [%] | pest or weed control at 5 µg/cm2, 5 µg/cm2 (Rhipicephalus sanguineus) [%] | mortality at 100 g/ha (Spodoptera frugiperda) [%] | mortality at 500 g/ha (Spodoptera frugiperda) [%] | pest or weed control at 5 µg/cm2, 5 µg/cm2 (Ctenocephalides felis [2]) [%] | mortality at 100 ppm (Ctenocephalides felis [3]) [%]
C[C@H](Nc1nc2cc(C(F)(F)F)cc(Cl)c2o1)c1ncnn1-c1ccncn1 [Example I-047, 7-Chlor-N-{(1S)-1-[1-(pyrimidin-4-yl)-1H-1,2,4-triazol-5-yl]ethyl}-5-(trifluormethyl)-1,3-benzoxazol-2-amin] | 100 | 100 | 100 | 100 | 100 | 100 | 100 | 100 |  | 
C[C@H](Nc1nc2cc(C(F)(F)F)cc(Br)c2o1)c1ncnn1-c1ccc(C#N)cn1 [Example I-055, 6-[5-[(1S)-1-{[7-Brom-5-(trifluormethyl)-1,3-benzoxazol-2-yl]amino}ethyl]-1H-1,2,4-triazol-1-yl}nicotinonitril] | 80 | 100 | 100 | 100 | 100 | 100 | 100 | 100 |  | 
C[C@H](Nc1nc2cc(C(F)(F)F)c(Cl)cc2o1)c1ncnn1-c1ccc(C(F)(F)F)cn1 [Example I-031] |  |  |  |  |  | 80 |  |  |  | 
Cc1nc([C@H](C)Nc2nc3cc(C(F)(F)F)cc(Cl)c3o2)n(-c2ncccn2)n1 [Example I-014] | 100 | 100 | 100 | 100 | 100 |  |  | 100 | 80 | 100
CC(C)c1cc(Cl)c2oc(N[C@@H](C)c3ncnn3-c3ccncn3)nc2c1 [Example I-066, 7-Chlor-5-isopropyl-N-{(1S)-1-[1-(pyrimidin-4-yl)-1H-1,2,4-triazol-5-yl]ethyl}-1,3-benzoxazol-2-amin] | 100 | 100 |  | 100 | 90 | 80 |  |  |  | 
C[C@H](Nc1nc2cc(Cl)cc(C(F)(F)F)c2o1)c1ncnn1-c1ncccn1 [Example I-090, 5-Chlor-N-{(1S)-1-[1-(pyrimidin-2-yl)-1H-1,2,4-triazol-5-yl]ethyl}-7-(trifluormethyl)-1,3-benzoxazol-2-amin] | 80 | 100 |  | 100 | 100 | 100 |  | 100 |  | 
C[C@H](Nc1nc2cc(Cl)c(C(F)(F)F)cn2n1)c1ncnn1-c1ncccn1 [Example I-097, 7-chloro-N-{(1S)-1-[1-(pyrimdin-2-yl)-1H-1,2,4-triazol-5-yl]ethyl}-6-(trifluoromethyl)[1,2,4]triazolo[1,5-a]pyridin-2-amine] |  |  |  |  | 100 | 80 |  |  | 100 | 
C[C@H](Nc1nc2cc(C(F)(F)F)cc(Br)c2o1)c1ncnn1-c1ncccn1 [Example I-034] | 100 | 100 | 100 | 80 | 90 | 100 | 100 | 100 |  | 100
CC(Nc1nc2cc(C#N)cc(Cl)c2o1)c1ncnn1-c1ncccn1 (stereo not drawn) [Example I-084, 7-Chlor-2-({1-[1-(pyrimidin-2-yl)-1H-1,2,4-triazol-5-yl]ethyl}amino)-1,3-benzoxazol-5-carbonitril] | 100 | 100 |  | 100 | 80 | 80 |  |  | 100 | 
C[C@H](Nc1nc2cc(OC(F)(F)F)cc(Cl)c2o1)c1ncnn1-c1ncc(Cl)cn1 [Example I-079, 7-Chlor-N-{(1S)-1-[1-(5-chlorpyrimidin-2-yl)-1H-1,2,4-triazol-5-yl]ethyl}-5-(trifluormethoxy)-1,3-benzoxazol-2-amin] | 80 |  | 100 |  |  |  |  |  | 100 | 100
C[C@H](Nc1nc2cc(C(F)(F)F)cc(Cl)c2o1)c1ncnn1-c1cnccn1 [Example I-039, 7-chloro-N-{(1S)-1-[1-(pyrazin-2-yl)-1H-1,2,4-triazol-5-yl]ethyl}-5-(trifluoromethyl)-1,3-benzoxazol-2-amine] | 100 | 100 | 100 | 100 | 90 | 100 |  | 100 |  | 100
C[C@H](Nc1nc2cc(C(F)(F)F)c(Cl)cc2o1)c1ncnn1-c1cnc(C#N)cn1 [Example I-057, 5-{5-[(1S)-1-{[6-Chlor-5-(trifluormethyl)-1,3-benzoxazol-2-yl]amino}ethyl]-1H-1,2,4-triazol-1-yl}pyrazin-2-carbonitril] | 80 |  |  |  | 100 |  | 100 |  | 100 | 100
C[C@H](Nc1nc2cc(OC(F)(F)F)cc(Cl)c2o1)c1ncnn1-c1ncccn1 [Example I-070, 7-Chlor-N-{(1S)-1-[1-(pyrimidin-2-yl)-1H-1,2,4-triazol-5-yl]ethyl}-5-(triflourmethoxy)-1,3-benzoxazol-2-amin] |  |  | 100 |  |  |  | 100 |  | 90 | 100
